Assay results published in paper PMC7407272, “Induction of Lysosome Membrane Permeabilization as a Therapeutic Strategy to Target Pancreatic Cancer Stem Cells” (Cancers, 2020).

What was measured:
Assay in all cases: KINOMEscan
Assay type in all cases: binding
Conditions in all cases: read-out: % Ctrl
ABL1(F317I)-nonP = biological target: T1, ABL1(F317I)-nonP (Homo sapiens, UniProt P00519, F317I)
T1 construct: purchased DiscoveRx KINOMEscan

PFPK5(P.falciparum) = biological target: T2, PFPK5(P.falciparum) (Plasmodium falciparum, UniProt P61075)
T2 construct: purchased DiscoveRx KINOMEscan
T2 sequence (P61075 whole entry): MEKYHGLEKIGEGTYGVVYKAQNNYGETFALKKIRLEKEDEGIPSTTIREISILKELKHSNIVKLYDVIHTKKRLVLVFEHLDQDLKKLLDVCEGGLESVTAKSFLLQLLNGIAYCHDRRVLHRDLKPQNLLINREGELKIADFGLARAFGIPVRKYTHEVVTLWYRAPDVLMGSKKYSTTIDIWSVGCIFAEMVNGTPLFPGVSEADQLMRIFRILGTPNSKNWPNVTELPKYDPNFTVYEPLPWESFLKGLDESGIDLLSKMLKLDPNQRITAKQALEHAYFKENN

ABL1(Q252H)-nonP = biological target: T3, ABL1(Q252H)-nonP (Homo sapiens, UniProt P00519, Q252H)
T3 construct: purchased DiscoveRx KINOMEscan

ABL1(T315I)-P = biological target: T4, ABL1(T315I)-P (Homo sapiens, UniProt P00519, T315I)
T4 construct: purchased DiscoveRx KINOMEscan

ABL2 = biological target: T5, ABL2 (Homo sapiens, UniProt P42684)
T5 construct: purchased DiscoveRx KINOMEscan

GSK3B = biological target: T6, GSK3B (Homo sapiens, UniProt P49841)
T6 construct: purchased DiscoveRx KINOMEscan
T6 sequence (P49841 whole entry): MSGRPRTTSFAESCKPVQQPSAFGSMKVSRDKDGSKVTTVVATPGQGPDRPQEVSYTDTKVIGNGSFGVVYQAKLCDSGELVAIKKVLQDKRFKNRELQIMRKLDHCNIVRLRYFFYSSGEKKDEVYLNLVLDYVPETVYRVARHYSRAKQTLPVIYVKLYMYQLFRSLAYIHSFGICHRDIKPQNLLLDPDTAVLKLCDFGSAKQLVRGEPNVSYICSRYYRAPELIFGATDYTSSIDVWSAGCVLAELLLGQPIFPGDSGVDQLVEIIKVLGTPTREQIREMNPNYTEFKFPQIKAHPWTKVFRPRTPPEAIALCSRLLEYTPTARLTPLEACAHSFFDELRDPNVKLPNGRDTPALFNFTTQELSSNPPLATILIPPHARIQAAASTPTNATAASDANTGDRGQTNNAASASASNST

HIPK3 = biological target: T7, HIPK3 (Homo sapiens, UniProt Q9H422)
T7 construct: purchased DiscoveRx KINOMEscan

PKAC-beta = biological target: T8, PKAC-beta (Homo sapiens, UniProt P22694)
T8 construct: purchased DiscoveRx KINOMEscan

AURKA = biological target: T9, AURKA (Homo sapiens, UniProt O14965)
T9 construct: purchased DiscoveRx KINOMEscan
T9 sequence (O14965 whole entry): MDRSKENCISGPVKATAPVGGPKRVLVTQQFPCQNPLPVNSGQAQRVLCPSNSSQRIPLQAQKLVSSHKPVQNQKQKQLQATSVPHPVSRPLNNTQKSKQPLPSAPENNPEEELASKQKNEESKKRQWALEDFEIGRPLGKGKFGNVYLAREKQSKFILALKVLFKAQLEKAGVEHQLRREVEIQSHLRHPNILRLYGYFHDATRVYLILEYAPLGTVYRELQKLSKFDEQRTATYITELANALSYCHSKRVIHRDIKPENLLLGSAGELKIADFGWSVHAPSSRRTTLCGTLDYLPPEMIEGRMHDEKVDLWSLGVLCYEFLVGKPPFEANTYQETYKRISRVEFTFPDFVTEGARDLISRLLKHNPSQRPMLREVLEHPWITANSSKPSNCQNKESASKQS

IGF1R = biological target: T10, IGF1R (Homo sapiens, UniProt P08069)
T10 construct: purchased DiscoveRx KINOMEscan
T10 sequence (P08069 31-1367): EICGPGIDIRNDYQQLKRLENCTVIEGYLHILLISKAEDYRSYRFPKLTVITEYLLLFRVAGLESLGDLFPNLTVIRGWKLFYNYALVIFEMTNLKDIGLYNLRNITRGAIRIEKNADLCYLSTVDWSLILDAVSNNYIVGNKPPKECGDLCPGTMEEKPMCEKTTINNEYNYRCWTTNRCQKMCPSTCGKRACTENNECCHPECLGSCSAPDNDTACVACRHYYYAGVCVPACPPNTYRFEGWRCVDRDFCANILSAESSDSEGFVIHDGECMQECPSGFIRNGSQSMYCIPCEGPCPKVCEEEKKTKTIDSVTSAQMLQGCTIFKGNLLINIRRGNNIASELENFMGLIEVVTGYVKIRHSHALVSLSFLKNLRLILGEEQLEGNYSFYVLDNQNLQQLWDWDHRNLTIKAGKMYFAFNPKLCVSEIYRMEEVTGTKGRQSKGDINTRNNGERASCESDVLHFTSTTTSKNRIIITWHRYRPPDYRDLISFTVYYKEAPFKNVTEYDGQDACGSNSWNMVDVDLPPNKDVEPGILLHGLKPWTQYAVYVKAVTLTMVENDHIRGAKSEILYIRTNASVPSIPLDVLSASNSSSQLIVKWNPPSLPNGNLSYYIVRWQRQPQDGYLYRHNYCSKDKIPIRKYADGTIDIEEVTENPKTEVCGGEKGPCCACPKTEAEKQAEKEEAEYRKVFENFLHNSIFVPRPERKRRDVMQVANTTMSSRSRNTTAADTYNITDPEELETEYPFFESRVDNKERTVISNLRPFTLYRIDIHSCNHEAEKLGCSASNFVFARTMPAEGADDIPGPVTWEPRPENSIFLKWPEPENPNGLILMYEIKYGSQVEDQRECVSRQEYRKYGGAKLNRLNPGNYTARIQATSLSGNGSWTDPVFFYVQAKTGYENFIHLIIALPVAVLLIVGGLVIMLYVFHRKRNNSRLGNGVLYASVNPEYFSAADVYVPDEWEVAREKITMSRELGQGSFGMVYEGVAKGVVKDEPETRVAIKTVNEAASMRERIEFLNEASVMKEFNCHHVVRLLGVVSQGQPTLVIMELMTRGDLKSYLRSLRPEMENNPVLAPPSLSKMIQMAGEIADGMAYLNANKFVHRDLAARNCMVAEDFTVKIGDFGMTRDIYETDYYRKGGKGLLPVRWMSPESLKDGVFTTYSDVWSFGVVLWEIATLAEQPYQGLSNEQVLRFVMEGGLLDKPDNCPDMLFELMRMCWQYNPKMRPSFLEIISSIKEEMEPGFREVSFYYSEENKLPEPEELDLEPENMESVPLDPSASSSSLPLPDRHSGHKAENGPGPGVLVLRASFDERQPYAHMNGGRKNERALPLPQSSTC

BRK = biological target: T11, BRK (Homo sapiens, UniProt Q13882)
T11 construct: purchased DiscoveRx KINOMEscan
T11 sequence (Q13882 whole entry): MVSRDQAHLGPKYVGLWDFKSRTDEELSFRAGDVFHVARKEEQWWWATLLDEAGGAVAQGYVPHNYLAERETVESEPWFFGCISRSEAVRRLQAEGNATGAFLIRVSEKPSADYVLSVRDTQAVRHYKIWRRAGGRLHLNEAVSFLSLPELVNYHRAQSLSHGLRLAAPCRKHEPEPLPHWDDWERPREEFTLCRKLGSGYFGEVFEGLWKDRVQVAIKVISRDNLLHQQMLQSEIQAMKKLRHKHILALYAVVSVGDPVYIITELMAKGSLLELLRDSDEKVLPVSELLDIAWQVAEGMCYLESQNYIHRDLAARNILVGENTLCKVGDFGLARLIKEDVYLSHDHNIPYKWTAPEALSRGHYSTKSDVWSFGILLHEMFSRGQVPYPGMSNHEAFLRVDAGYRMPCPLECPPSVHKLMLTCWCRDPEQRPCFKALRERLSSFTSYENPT

CAMK1D = biological target: T12, CAMK1D (Homo sapiens, UniProt Q8IU85)
T12 construct: purchased DiscoveRx KINOMEscan
T12 sequence (Q8IU85 whole entry): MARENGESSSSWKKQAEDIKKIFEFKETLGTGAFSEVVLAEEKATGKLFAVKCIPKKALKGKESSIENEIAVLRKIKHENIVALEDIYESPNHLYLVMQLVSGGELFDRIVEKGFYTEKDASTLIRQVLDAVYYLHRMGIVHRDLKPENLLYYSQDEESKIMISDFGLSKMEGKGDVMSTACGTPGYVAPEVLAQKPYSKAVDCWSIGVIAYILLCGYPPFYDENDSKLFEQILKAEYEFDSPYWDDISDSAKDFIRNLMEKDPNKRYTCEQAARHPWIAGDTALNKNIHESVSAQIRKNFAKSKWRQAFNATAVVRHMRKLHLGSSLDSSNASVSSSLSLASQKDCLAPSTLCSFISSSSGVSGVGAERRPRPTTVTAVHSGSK

CAMKK1 = biological target: T13, CAMKK1 (Homo sapiens, UniProt Q8N5S9)
T13 construct: purchased DiscoveRx KINOMEscan

CAMKK2 = biological target: T14, CAMKK2 (Homo sapiens, UniProt Q96RR4)
T14 construct: purchased DiscoveRx KINOMEscan

KIT(V559D,V654A) = biological target: T15, KIT(V559D,V654A) (Homo sapiens, UniProt P10721, V559D/V654A)
T15 construct: purchased DiscoveRx KINOMEscan

RIOK1 = biological target: T16, RIOK1 (Homo sapiens, UniProt Q9BRS2)
T16 construct: purchased DiscoveRx KINOMEscan

LATS2 = biological target: T17, LATS2 (Homo sapiens, UniProt Q9NRM7)
T17 construct: purchased DiscoveRx KINOMEscan

ROCK1 = biological target: T18, ROCK1 (Homo sapiens, UniProt Q13464)
T18 construct: purchased DiscoveRx KINOMEscan

CDK5 = biological target: T19, CDK5 (Homo sapiens, UniProt Q00535)
T19 construct: purchased DiscoveRx KINOMEscan
T19 sequence (Q00535 whole entry): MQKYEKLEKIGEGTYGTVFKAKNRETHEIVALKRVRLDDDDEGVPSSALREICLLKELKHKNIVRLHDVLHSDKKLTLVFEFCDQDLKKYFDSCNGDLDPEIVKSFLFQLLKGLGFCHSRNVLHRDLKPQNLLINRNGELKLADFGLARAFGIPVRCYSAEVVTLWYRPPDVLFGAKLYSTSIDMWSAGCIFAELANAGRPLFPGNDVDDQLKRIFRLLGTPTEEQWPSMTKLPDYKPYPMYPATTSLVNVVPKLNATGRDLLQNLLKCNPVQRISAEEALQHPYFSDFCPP

MAP3K15 = biological target: T20, MAP3K15 (Homo sapiens, UniProt Q6ZN16)
T20 construct: purchased DiscoveRx KINOMEscan

MAPKAPK2 = biological target: T21, MAPKAPK2 (Homo sapiens, UniProt P49137)
T21 construct: purchased DiscoveRx KINOMEscan

CSF1R = biological target: T22, CSF1R (Homo sapiens, UniProt P07333)
T22 construct: purchased DiscoveRx KINOMEscan

MAPKAPK5 = biological target: T23, MAPKAPK5 (Homo sapiens, UniProt Q8IW41)
T23 construct: purchased DiscoveRx KINOMEscan

SgK110 = biological target: T24, SgK110 (Homo sapiens, UniProt P0C264)
T24 construct: purchased DiscoveRx KINOMEscan

SIK = biological target: T25, SIK (Homo sapiens, UniProt P57059)
T25 construct: purchased DiscoveRx KINOMEscan

CSNK2A1 = biological target: T26, CSNK2A1 (Homo sapiens, UniProt P68400)
T26 construct: purchased DiscoveRx KINOMEscan

CSNK2A2 = biological target: T27, CSNK2A2 (Homo sapiens, UniProt P19784)
T27 construct: purchased DiscoveRx KINOMEscan

MELK = biological target: T28, MELK (Homo sapiens, UniProt Q14680)
T28 construct: purchased DiscoveRx KINOMEscan

STK39 = biological target: T29, STK39 (Homo sapiens, UniProt Q9UEW8)
T29 construct: purchased DiscoveRx KINOMEscan

DDR2 = biological target: T30, DDR2 (Homo sapiens, UniProt Q16832)
T30 construct: purchased DiscoveRx KINOMEscan

MKNK2 = biological target: T31, MKNK2 (Homo sapiens, UniProt Q9HBH9)
T31 construct: purchased DiscoveRx KINOMEscan
T31 sequence (Q9HBH9 whole entry): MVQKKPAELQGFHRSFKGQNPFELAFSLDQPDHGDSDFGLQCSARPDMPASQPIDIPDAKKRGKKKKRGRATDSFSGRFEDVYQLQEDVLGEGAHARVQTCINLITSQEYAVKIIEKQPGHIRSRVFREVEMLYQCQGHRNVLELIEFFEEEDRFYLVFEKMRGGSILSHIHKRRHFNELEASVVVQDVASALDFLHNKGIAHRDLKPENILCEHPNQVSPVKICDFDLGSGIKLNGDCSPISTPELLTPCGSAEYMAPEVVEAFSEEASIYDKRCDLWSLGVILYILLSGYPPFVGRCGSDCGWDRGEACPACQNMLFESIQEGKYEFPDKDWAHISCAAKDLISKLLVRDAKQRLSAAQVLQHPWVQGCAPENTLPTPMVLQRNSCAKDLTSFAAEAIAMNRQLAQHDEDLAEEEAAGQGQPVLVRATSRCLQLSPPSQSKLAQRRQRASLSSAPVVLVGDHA

TIE2 = biological target: T32, TIE2 (Homo sapiens, UniProt Q02763)
T32 construct: purchased DiscoveRx KINOMEscan

EGFR(G719S) = biological target: T33, EGFR(G719S) (Homo sapiens, UniProt P00533, G719S)
T33 construct: purchased DiscoveRx KINOMEscan

EPHA2 = biological target: T34, EPHA2 (Homo sapiens, UniProt P29317)
T34 construct: purchased DiscoveRx KINOMEscan

ULK3 = biological target: T35, ULK3 (Homo sapiens, UniProt Q6PHR2)
T35 construct: purchased DiscoveRx KINOMEscan

VEGFR2 = biological target: T36, VEGFR2 (Homo sapiens, UniProt P35968)
T36 construct: purchased DiscoveRx KINOMEscan

NIM1 = biological target: T37, NIM1 (Homo sapiens, UniProt Q8IY84)
T37 construct: purchased DiscoveRx KINOMEscan
T37 sequence (Q8IY84 whole entry): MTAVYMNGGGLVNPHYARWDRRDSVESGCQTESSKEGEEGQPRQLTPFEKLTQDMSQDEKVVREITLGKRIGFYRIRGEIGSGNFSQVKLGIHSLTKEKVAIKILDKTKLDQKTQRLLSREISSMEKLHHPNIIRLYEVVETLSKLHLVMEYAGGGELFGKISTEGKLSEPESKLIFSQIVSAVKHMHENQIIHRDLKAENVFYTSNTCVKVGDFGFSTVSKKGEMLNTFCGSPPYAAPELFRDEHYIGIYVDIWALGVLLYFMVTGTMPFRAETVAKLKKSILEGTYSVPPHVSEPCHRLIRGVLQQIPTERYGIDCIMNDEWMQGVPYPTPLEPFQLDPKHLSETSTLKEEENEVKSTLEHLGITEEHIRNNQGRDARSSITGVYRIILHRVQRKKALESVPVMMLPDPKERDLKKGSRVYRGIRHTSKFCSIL

p38-beta = biological target: T38, p38-beta (Homo sapiens, UniProt Q15759)
T38 construct: purchased DiscoveRx KINOMEscan

p38-gamma = biological target: T39, p38-gamma (Homo sapiens, UniProt P53778)
T39 construct: purchased DiscoveRx KINOMEscan

ERK2 = biological target: T40, ERK2 (Homo sapiens, UniProt P28482)
T40 construct: purchased DiscoveRx KINOMEscan
T40 sequence (P28482 whole entry): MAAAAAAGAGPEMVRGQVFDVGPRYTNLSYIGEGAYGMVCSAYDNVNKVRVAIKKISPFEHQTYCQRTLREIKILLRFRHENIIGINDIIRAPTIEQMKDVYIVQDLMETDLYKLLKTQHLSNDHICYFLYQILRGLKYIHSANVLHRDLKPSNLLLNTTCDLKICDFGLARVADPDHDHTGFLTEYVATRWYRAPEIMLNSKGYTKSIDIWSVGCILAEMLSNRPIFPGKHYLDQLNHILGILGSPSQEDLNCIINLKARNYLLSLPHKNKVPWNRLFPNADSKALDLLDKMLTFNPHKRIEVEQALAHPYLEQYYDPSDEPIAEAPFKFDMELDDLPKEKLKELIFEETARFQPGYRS

PAK3 = biological target: T41, PAK3 (Homo sapiens, UniProt O75914)
T41 construct: purchased DiscoveRx KINOMEscan

YSK1 = biological target: T42, YSK1 (Homo sapiens, UniProt O00506)
T42 construct: purchased DiscoveRx KINOMEscan

ERN1 = biological target: T43, ERN1 (Homo sapiens, UniProt O75460)
T43 construct: purchased DiscoveRx KINOMEscan

PCTK2 = biological target: T44, PCTK2 (Homo sapiens, UniProt Q00537)
T44 construct: purchased DiscoveRx KINOMEscan

`CN1CCC(CNc2ccc3ncc(C(=O)Nc4cccc(OC(F)(F)F)c4)n3n2)CC1` [Cpd 2] showed a remaining binding at 1 µM (ABL1(F317I)-nonP) of 61%, a remaining binding at 1 µM (PFPK5(P.falciparum)) of 97% and a remaining binding at 1 µM (ABL1(Q252H)-nonP) of 94%. For the same compound, the remaining binding at 1 µM (ABL1(T315I)-P) was 100%, the remaining binding at 1 µM (ABL2) was 96% and the remaining binding at 1 µM (GSK3B) was 97%. The remaining binding at 1 µM (HIPK3) was 100%, the remaining binding at 1 µM (PKAC-beta) was 88% and the remaining binding at 1 µM (AURKA) was 96%. For the same compound, the remaining binding at 1 µM (IGF1R) was 100%, the remaining binding at 1 µM (BRK) was 99% and the remaining binding at 1 µM (CAMK1D) was 94%. The remaining binding at 1 µM (CAMKK1) was 94%, the remaining binding at 1 µM (CAMKK2) was 100% and the remaining binding at 1 µM (KIT(V559D,V654A)) was 91%. For the same compound, the remaining binding at 1 µM (RIOK1) was 76%, the remaining binding at 1 µM (LATS2) was 99% and the remaining binding at 1 µM (ROCK1) was 50%. It also gave a remaining binding at 1 µM (CDK5) of 100%, a remaining binding at 1 µM (MAP3K15) of 100% and a remaining binding at 1 µM (MAPKAPK2) of 94%. For the same compound, the remaining binding at 1 µM (CSF1R) was 100%, the remaining binding at 1 µM (MAPKAPK5) was 100% and the remaining binding at 1 µM (SgK110) was 72%. The remaining binding at 1 µM (SIK) was 99%, the remaining binding at 1 µM (CSNK2A1) was 98% and the remaining binding at 1 µM (CSNK2A2) was 39%. The remaining binding at 1 µM (MELK) was 100%, the remaining binding at 1 µM (STK39) was 99% and the remaining binding at 1 µM (DDR2) was 89%. For the same compound, the remaining binding at 1 µM (MKNK2) was 96%, the remaining binding at 1 µM (TIE2) was 100% and the remaining binding at 1 µM (EGFR(G719S)) was 100%. The remaining binding at 1 µM (EPHA2) was 100%, the remaining binding at 1 µM (ULK3) was 78% and the remaining binding at 1 µM (VEGFR2) was 100%. The remaining binding at 1 µM (NIM1) was 78%, the remaining binding at 1 µM (p38-beta) was 100% and the remaining binding at 1 µM (p38-gamma) was 91%. The remaining binding at 1 µM (ERK2) was 100%, the remaining binding at 1 µM (PAK3) was 98% and the remaining binding at 1 µM (YSK1) was 95%. It also gave a remaining binding at 1 µM (ERN1) of 79% and a remaining binding at 1 µM (PCTK2) of 100%.
